One may read the EC50 as the concentration at which the effect is half-maximal. The inhibition is how much of the control response was suppressed.

Data on eleven molecules can be found in patent US9249102B2 (priority 2012, dated 2016).

Test [1] concerns microfilaria of Dirofilaria immitis. Briefly: Method F: microfilaria of Dirofilaria immitis, survival at 24 hours. As to conditions: survival of microfilaria at 24 hours.
For another test, the system named is Haemonchus contortus. Briefly: Method A: Haemonchus contortus L1 larvae, microtitre plate screen. As to conditions: 96 h, read-out: motility inhibition.

Where only a bound is given, the exact number is not on record here.

Turning to `N#Cc1ccc(NC2CCN(C(=O)CCCN3CCN(c4ccc5ccccc5c4)CC3)CC2)cc1C(F)(F)F` [Compound 15, 4-[(1-[4-[4-(naphthalen-2-yl)piperazin-1-yl]butanoyl]piperidin-4-yl)amino]-2-(trifluoromethyl)benzonitrile], the EC50 in test [1] was less than 5 µg/mL.

In the case of `CC(CN1CCN(c2cccc3ccccc23)CC1)C(=O)N1CCC(Nc2ccc([N+](=O)[O-])c(C(F)(F)F)c2)CC1` (centres unmarked) [Compound 19, 2-methyl-3-(4-naphthalen-1-yl-piperazin-1-yl)-1-[4-(4-nitro-3-trifluoromethyl-phenylamino)-piperidin-1-yl]-propan-1-one], the EC50 in test [1] was less than 1 µg/mL.

The molecule `O=C(CO[C@H]1CC[C@H](Nc2ccc([N+](=O)[O-])c(C(F)(F)F)c2)CC1)N1CCN(c2cccc3ccccc23)CC1` [Compound 20, 1-[4-(naphthalen-1-yl)piperazin-1-yl]-2-[(4-[[4-nitro-3-(trifluoromethyl)phenyl]amino]cyclohexyl)oxy]ethan-1-one] registered an EC50 in test [1] of less than 1 µg/mL.

For the molecule `N#Cc1ccc(NC2CCN(C(=O)CCCN3CCN(c4ccc5ccccc5n4)CC3)CC2)cc1C(F)(F)F` [Compound 94, 4-[(1-[4-[4-(quinolin-2-yl)piperazin-1-yl]butanoyl]piperidin-4-yl)amino]-2-(trifluoromethyl)benzonitrile], in test [1], the concentration for a half-maximal effect (EC50) was less than 5 µg/mL.

In the case of `C[C@@H]1CN(C(=O)CO[C@H]2CC[C@H](Nc3ccc([N+](=O)[O-])c(C(F)(F)F)c3)CC2)C[C@H](C)N1Cc1ccc2cc(F)ccc2c1` [Compound 372, 1-[(3S,5R)-4-(6-fluoro-naphthalen-2-ylmethyl)-3,5-dimethyl-piperazin-1-yl]-2-[4-(4-nitro-3-trifluoromethyl-phenylamino)-cyclohexyloxy]-ethanone], the inhibition at 5 µg/mL in the test on Haemonchus contortus is not below 90%.

As to `C[C@@H]1CN(C(=O)CO[C@H]2CC[C@H](Nc3ccc([N+](=O)[O-])c(C(F)(F)F)c3)CC2)C[C@H](C)N1Cc1ccc2cc(C(F)(F)F)ccc2c1` [Compound 374, 1-[(3S,5R)-3,5-dimethyl-4-(6-trifluoromethyl-naphthalen-2-ylmethyl)-piperazin-1-yl]-2-[4-(4-nitro-3-trifluoromethyl-phenylamino)-cyclohexyloxy]-ethanone], the inhibition at 5 µg/mL in the test on Haemonchus contortus is not below 90%.

With `O=C(CO[C@H]1CC[C@H](Nc2ccc([N+](=O)[O-])c(C(F)(F)F)c2)CC1)N1CCN(Cc2cc3cc(F)cc(F)c3o2)CC1` [Compound 375], the inhibition at 5 µg/mL with Haemonchus contortus was not below 90%.

With `CC1(CN2CCN(C(=O)CO[C@H]3CC[C@H](Nc4ccc([N+](=O)[O-])c(C(F)(F)F)c4)CC3)CC2)Cc2cc(F)ccc2O1` (some centres unmarked) [Compound 377, 1-[4-[(5-fluoro-2-methyl-3H-benzofuran-2-yl)methyl]piperazin-1-yl]-2-[4-[4-nitro-3-(trifluoromethyl)anilino]cyclohexoxy]ethanone], the inhibition at 5 µg/mL with Haemonchus contortus is not below 90%.

For `C[C@@H]1CN(C(=O)CO[C@H]2CC[C@H](Nc3ccc([N+](=O)[O-])c(C(F)(F)F)c3)CC2)C[C@H](C)N1c1ccc2cc(F)ccc2n1` [Compound 381, 1-[(3S,5R)-4-(6-fluoro-quinolin-2-yl)-3,5-dimethyl-piperazin-1-yl]-2-[4-(4-nitro-3-trifluoromethyl-phenylamino)-cyclohexyloxy]-ethanone], the inhibition at 5 µg/mL with Haemonchus contortus was not below 90%.

Consider `O=C(CO[C@H]1CC[C@H](Nc2ccc([N+](=O)[O-])c(C(F)(F)F)c2)CC1)N1CCN(c2nc3cc(C(F)(F)F)ccc3o2)CC1` [Compound 400, 2-[4-(4-nitro-3-trifluoromethyl-phenylamino)-cyclohexyloxy]-1-[4-(5-trifluoromethyl-benzooxazol-2-yl)-piperazin-1-yl]-ethanone], for which the inhibition at 5 µg/mL with Haemonchus contortus is not below 90%.

For the molecule `O=C(CO[C@H]1CC[C@H](Nc2ccc([N+](=O)[O-])c(C(F)(F)F)c2)CC1)N1CCN(c2nc3cc(OC(F)(F)F)ccc3o2)CC1` [Compound 401, 2-[4-(4-nitro-3-trifluoromethyl-phenylamino)-cyclohexyloxy]-1-[4-(5-trifluoromethoxy-benzooxazol-2-yl)-piperazin-1-yl]-ethanone], the inhibition at 5 µg/mL with Haemonchus contortus is not below 90%.
